Key:
[1] = biological target: T1, NEP enzyme (Homo sapiens, UniProt P08473); experiment: NEP enzyme inhibition assay (fluorogenic peptide substrate); format: biochemical; details: values given as lower bounds; * = prodrugs, may not exhibit NEP activity in an in vitro assay; read-out: NEP pIC50 (converted)
T1 construct: purchased R&D Systems, Minneapolis, Minn; 1182-ZN
Outline: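 Recombinant human NEP was run with Mca-BK2 (10 μM) at room temperature in Tris buffer with 1 μM Zn. Compounds (10 μM–20 pM, 12 points) were pre-equilibrated 10 min, then reacted 20 min and acid-stopped. Fluorescence ex 320/em 405 nm, one-site competition fit gives pIC50. Thiol compounds may be pre-treated with 400 μM TCEP.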

[2] = biological target: T2, human AT1 receptor (Homo sapiens, UniProt P30556); experiment: AT1 radioligand binding assay (displacement of [Eu]AngII); details: membranes of CHO-K1 cells expressing cloned human AT1 receptor; values given as lower bounds; read-out: AT1 pKi (converted)
T2 construct: expressed in transfected cells; host or cells: CHO-K1
T2 sequence (P30556 1-359): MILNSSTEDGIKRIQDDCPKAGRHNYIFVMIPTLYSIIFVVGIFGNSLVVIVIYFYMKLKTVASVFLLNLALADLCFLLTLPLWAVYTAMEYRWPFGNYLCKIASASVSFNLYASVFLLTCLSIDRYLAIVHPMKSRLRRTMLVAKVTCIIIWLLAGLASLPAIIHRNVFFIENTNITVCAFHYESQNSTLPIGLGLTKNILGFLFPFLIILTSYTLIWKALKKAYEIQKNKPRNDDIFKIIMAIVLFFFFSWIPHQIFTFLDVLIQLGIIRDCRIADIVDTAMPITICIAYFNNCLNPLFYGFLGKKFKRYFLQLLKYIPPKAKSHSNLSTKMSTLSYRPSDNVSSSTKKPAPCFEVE
Outline: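 Membranes from CHO-K1 cells stably expressing cloned human AT1, 0.2 μg protein, in 50 mM Tris/HCl pH 7.5, 5 mM MgCl2, 0.025% BSA. Compounds displaced [Eu]AngII over 120 min in the dark at room temperature or 37° C; filter-bound TRF read. Nonspecific binding with 10 μM angiotensin II; IC50 converted to Ki via Cheng-Prusoff, reported as pKi.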

T1 sequence (P08473 52-750 limits assumed): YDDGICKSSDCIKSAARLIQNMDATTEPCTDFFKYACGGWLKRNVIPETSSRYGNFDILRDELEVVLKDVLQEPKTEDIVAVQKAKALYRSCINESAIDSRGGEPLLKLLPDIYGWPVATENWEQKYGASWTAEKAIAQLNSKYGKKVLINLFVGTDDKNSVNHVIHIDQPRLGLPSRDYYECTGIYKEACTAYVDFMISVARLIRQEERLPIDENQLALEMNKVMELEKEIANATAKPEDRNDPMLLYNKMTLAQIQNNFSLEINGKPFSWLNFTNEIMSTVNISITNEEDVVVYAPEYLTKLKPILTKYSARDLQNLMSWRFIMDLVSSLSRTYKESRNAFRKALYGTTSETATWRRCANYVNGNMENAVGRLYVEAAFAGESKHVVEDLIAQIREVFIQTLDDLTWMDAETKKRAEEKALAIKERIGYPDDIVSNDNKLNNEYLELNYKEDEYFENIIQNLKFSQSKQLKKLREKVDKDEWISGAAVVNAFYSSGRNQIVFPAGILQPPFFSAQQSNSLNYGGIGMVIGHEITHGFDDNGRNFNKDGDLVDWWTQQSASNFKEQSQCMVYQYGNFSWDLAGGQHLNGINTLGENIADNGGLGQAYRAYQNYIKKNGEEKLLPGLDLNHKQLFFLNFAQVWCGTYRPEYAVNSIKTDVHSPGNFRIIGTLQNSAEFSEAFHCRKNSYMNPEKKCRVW

For CCCc1cc(C(=O)N[C@@H](CC(=O)O)Cc2ccccc2)nn1Cc1ccc(-c2ccccc2S(=O)(=O)NC(C)=O)nc1 [Example 14-15, (R)-3-({1-[6-(2-Acetylsulfamoylphenyl)-pyridin-3-ylmethyl]-5-propyl-1H-pyrazole-3-carbonyl}-amino)-4-phenylbutyric acid], the IC50 [1] was at most 1000 nM and the Ki [2] was at most 10 nM.
With CCCc1cc(C(=O)N[C@H](Cc2ccccc2)[C@@H](O)C(=O)O)nn1Cc1ccc(-c2ccccc2-c2nnn[nH]2)cn1 [Example 15-1, (2R,3R)-2-Hydroxy-4-phenyl-3-[(5-propyl-1-{5-[2-(1H-tetrazol-5-yl)phenyl]pyridin-2-ylmethyl}-1H-pyrazole-3-carbonyl)amino]butyric acid] the IC50 [1] was at most 1000 nM and the Ki [2] was at most 10 nM.
CCCc1cc(C(=O)N[C@@H](CC(=O)O)Cc2ccccc2Cl)nn1Cc1ccc(-c2ccccc2-c2nnn[nH]2)cn1 [Example 15-2, (R)-4-(2-Chlorophenyl)-3-[(5-propyl-1-{5-[2-(1H-tetrazol-5-yl)phenyl]pyridin-2-ylmethyl}-1H-pyrazole-3-carbonyl)amino]butyric acid] gave an IC50 [1] of at most 1000 nM and a Ki [2] of at most 100 nM.
Work on CCCc1cc(C(=O)N[C@H](Cc2ccccc2)[C@@H](O)C(=O)O)nn1Cc1ccc(-c2ccccc2S(=O)(=O)NC(C)=O)cn1 [Example 15-3, (2R,3R)-3-({1-[5-(2-Acetylsulfamoylphenyl)pyridin-2-ylmethyl]-5-propyl-1H-pyrazole-3-carbonyl}amino)-2-hydroxy-4-phenylbutyric acid] yielded an IC50 [1] of at most 100 nM and a Ki [2] of at most 100 nM.
Molecule CCCc1cc(C(=O)N[C@@H](CC(=O)O)Cc2ccccc2Cl)nn1Cc1ccc(-c2ccccc2S(=O)(=O)NC(C)=O)cn1 [Example 15-4, (R)-3-({1-[5-(2-Acetylsulfamoylphenyl)pyridin-2-ylmethyl]-5-propyl-1H-pyrazole-3-carbonyl}amino)-4-(2-chlorophenyl)butyric acid] has an IC50 [1] of at most 1000 nM and a Ki [2] of at most 100 nM.
With CCCc1cc(C(=O)N[C@@H](CS)Cc2ccccc2)nn1Cc1ccc(-c2ccccc2-c2nc(=O)o[nH]2)cc1 [Example 16-1, 1-[2′-(5-Oxo-2,5-dihydro-[1,2,4]oxadiazol-3-yl)biphenyl-4-ylmethyl]-5-propyl-1H-pyrazole-3-carboxylic acid ((R)-1-benzyl-2-mercaptoethyl)amide] the IC50 [1] was at most 100 nM and the Ki [2] was at most 10 nM.
With CCCc1cc(C(=O)N[C@H](Cc2ccccc2)[C@@H](O)C(=O)O)nn1Cc1ccc(-c2ccccc2-c2nc(=O)o[nH]2)cc1 [Example 16-2, (2R,3R)-2-Hydroxy-3-({1-[2′-(5-oxo-2,5-dihydro-[1,2,4]oxadiazol-3-yl)biphenyl-4-ylmethyl]-5-propyl-1H-pyrazole-3-carbonyl}amino)-4-phenylbutyric acid] the IC50 [1] was at most 1000 nM and the Ki [2] was at most 10 nM.
CCCc1cc(C(=O)N[C@H](Cc2ccccc2)[C@@H](O)C(=O)O)nn1Cc1ccc(-c2ccccc2-n2nn[nH]c2=O)cc1 [Example 16-3, (2R,3R)-2-Hydroxy-3-({1-[2′-(5-oxo-4,5-dihydrotetrazol-1-yl)-biphenyl-4-ylmethyl]-5-propyl-1H-pyrazole-3-carbonyl}amino)-4-phenylbutyric acid] gave an IC50 [1] of at most 100 nM and a Ki [2] of at most 10 nM.
For CCCc1cc(C(=O)N[C@@H](CC(=O)O)Cc2ccccc2)nn1Cc1ccc(-c2ccccc2-n2nn[nH]c2=O)cc1 [Example 16-4, (R)-3-({1-[2′-(5-Oxo-4,5-dihydrotetrazol-1-yl)biphenyl-4-ylmethyl]-5-propyl-1H-pyrazole-3-carbonyl}amino)-4-phenylbutyric acid], the IC50 [1] was at most 1000 nM and the Ki [2] was at most 10 nM.
CCCc1cc(C(=O)N[C@@H](CC(=O)O)Cc2ccccc2Cl)nn1Cc1ccc(-c2ccccc2-n2nn[nH]c2=O)cc1 [Example 16-5, (R)-4-(2-Chlorophenyl)-3-({1-[2′-(5-oxo-4,5-dihydrotetrazol-1-yl)-biphenyl-4-ylmethyl]-5-propyl-1H-pyrazole-3-carbonyl}amino)butyric acid] showed an IC50 [1] of at most 1000 nM and a Ki [2] of at most 10 nM.
With CCCc1cc(C(=O)N[C@H](Cc2ccccc2Cl)[C@@H](O)C(=O)O)nn1Cc1ccc(-c2ccccc2-n2nn[nH]c2=O)cc1 [Example 16-6, (2R,3R)-4-(2-Chlorophenyl)-2-hydroxy-3-({1-[2′-(5-oxo-4,5-dihydrotetrazol-1-yl)biphenyl-4-ylmethyl]-5-propyl-1H-pyrazole-3-carbonyl}amino)butyric acid] the IC50 [1] was at most 100 nM and the Ki [2] was at most 100 nM.
CCOc1cc(C(=O)N[C@H](Cc2ccccc2)[C@@H](O)C(=O)O)nn1Cc1ccc(-c2ccccc2-n2nn[nH]c2=O)cc1 [Example 16-7, (2R,3R)-3-({5-Ethoxy-1-[2′-(5-oxo-4,5-dihydrotetrazol-1-yl)-biphenyl-4-ylmethyl]-1H-pyrazole-3-carbonyl}amino)-2-hydroxy-4-phenylbutyric acid] gave an IC50 [1] of at most 100 nM and a Ki [2] of at most 10 nM.
In the case of CCCc1cc(C(=O)N[C@@H](CC(=O)O)Cc2ccccc2Cl)nn1Cc1cnc(-c2ccccc2-c2nnn[nH]2)cn1 [Example 17-2, (R)-4-(2-Chlorophenyl)-3-[(5-propyl-1-{5-[2-(1H-tetrazol-5-yl)phenyl]pyrazin-2-ylmethyl}-1H-pyrazole-3-carbonyl)amino]butyric acid], the IC50 [1] is reported as at most 1000 nM and the Ki [2] is reported as at most 10 nM.
Work on CCCc1cc(C(=O)N[C@H](Cc2ccccc2)[C@@H](O)C(=O)O)nn1Cc1cnc(-c2ccccc2-c2nnn[nH]2)cn1 [Example 17-3, (2R,3R)-3-(1-((5-(2-(1H-tetrazol-5-yl)phenyl)pyrazin-2-yl)methyl)-5-propyl-1H-pyrazole-3-carboxamido)-2-hydroxy-4-phenylbutanoic acid] yielded an IC50 [1] of at most 100 nM and a Ki [2] of at most 10 nM.
CCCc1cc(C(=O)N[C@@H](CC(=O)O)Cc2ccccc2)nn1Cc1cnc(-c2ccccc2S(=O)(=O)NC(C)=O)cn1 [Example 17-4, (R)-3-({1-[5-(2-Acetylsulfamoylphenyl)pyrazin-2-ylmethyl]-5-propyl-1H-pyrazole-3-carbonyl}amino)-4-phenylbutyric acid] was tested, and the IC50 [1] was at most 1000 nM and the Ki [2] was at most 10 nM.
With CCCc1cc(C(=O)N[C@H](Cc2ccccc2)[C@@H](O)C(=O)O)nn1Cc1cnc(-c2ccccc2S(=O)(=O)NC(C)=O)cn1 [Example 17-5, (2R,3R)-3-({1-[5-(2-Acetylsulfamoylphenyl)pyrazin-2-ylmethyl]-5-propyl-1H-pyrazole-3-carbonyl}amino)-2-hydroxy-4-phenylbutyric acid] the IC50 [1] was at most 100 nM and the Ki [2] was at most 100 nM.
For CCCc1cc(C(=O)N[C@@H](CC(=O)O)Cc2ccccc2Cl)nn1Cc1cnc(-c2ccccc2S(=O)(=O)NC(C)=O)cn1 [Example 17-6, (R)-3-({1-[5-(2-Acetylsulfamoyl-phenyl)-pyrazin-2-ylmethyl]-5-propyl-1H-pyrazole-3-carbonyl}amino)-4-(2-chloro-phenyl)butyric acid], the IC50 [1] was at most 1000 nM and the Ki [2] was at most 10 nM.
CCCc1cc(C(=O)N[C@@H](CC(=O)O)Cc2ccccc2Cl)nn1Cc1cnc(-c2ccccc2-c2nnn[nH]2)nc1 [Example 18, (R)-4-(2-Chlorophenyl)-3-[(5-propyl-1-{2-[2-(1H-tetrazol-5-yl)phenyl]pyrimidin-5-ylmethyl}-1H-pyrazole-3-carbonyl)amino]butyric acid] showed an IC50 [1] of at most 1000 nM and a Ki [2] of at most 100 nM.

From patent publication US8350027B2, “Dual-acting pyrazole antihypertensive agents” (Theravance, Inc., priority 2009, dated 2013)
